{"source": "paper PMC3022839", "about": "(BMC Medical Imaging, 2011)", "key": {"[1]": {"assay": "Tariquidar plasma concentration (LC/MS)", "assay_type": "in vivo", "settings": "Sprague-Dawley, rat, intravenous, 15 mg/kg, 2 hours after tariquidar 15 mg/kg i.v., mean ± s.d."}, "[2]": {"assay": "Population mixed effects modelling (NONMEM) of (R)-[11C]verapamil plasma kinetics", "settings": "tariquidar 15 mg/kg i.v. co-administration vs vehicle"}, "P-glycoprotein (P-gp)": {"test_system": "P-glycoprotein (P-gp)", "assay": "P-gp expression in brain capillaries (immunohistochemistry, C219)", "assay_type": "in vivo, rat", "settings": "kainate vs saline treated rats, 7 days after treatment; cortex and hippocampus CA1"}, "[3]": {"test_system": "P-glycoprotein (P-gp) at the blood-brain barrier", "assay": "Population mixed effects modelling (NONMEM) of (R)-[11C]verapamil brain kinetics"}, "Sprague-Dawley rats": {"test_system": "Sprague-Dawley rats", "assay": "Kainate-induced status epilepticus", "assay_type": "in vivo, rat", "description": "Adult male Sprague-Dawley rats (n = 50, Harlan, Horst, The Netherlands) weighing 200-224 g at arrival were housed in groups of 5-6 per cage until treatment. They were kept at a constant temperature of 21°C and at a 12 h light/dark cycle, in which lights were switched on at 8:00 AM. Animals had unrestricted access to food (Teklad Global 16% Protein Rodent Diet, Harlan, Madison, WI, USA) and water. Animal procedures were performed in accordance with Dutch laws on animal experimentation. All experiments were approved by the Ethics Committee for Animal Experiments of Leiden University (approval number UDEC08178). After approximately one week of habituation and 7 days prior to PET investigation rats were treated with either kainic acid (5 mg/mL) or saline. Kainic acid was administered repeatedly as a 10 mg/kg (2 mL/kg) i.p. injection followed by 5 mg/kg (1 mL/kg) i.p. every 30-60 minutes until stage IV seizures according to Racine's scale occurred, or when a total amount of 30 mg/kg kainic acid was reached. Control rats were treated with 3 saline i.p. injections using the same volumes as for the kainate treated rats, 30 minutes apart. After treatment rats were housed individually."}, "18FDG brain uptake (PET)": {"assay": "18FDG brain uptake (PET)", "assay_type": "in vivo, rat", "settings": "60 minutes after injection", "source_text": "No post-reconstruction filtering was applied."}}}
{"smiles": "COc1cc2c(cc1OC)CN(CCc1ccc(NC(=O)c3cc(OC)c(OC)cc3NC(=O)c3cnc4ccccc4c3)cc1)CC2", "note": "[tariquidar, Tariquidar]", "values": [{"measurement": "concentration at 2 h", "setting": "[1]; kainate group", "result": "1.6 ± 0.3", "unit": "µg/mL"}, {"measurement": "concentration at 2 h", "setting": "[1]; saline group", "result": "1.8 ± 0.3", "unit": "µg/mL"}, {"measurement": "Covariate tariquidar on Vp1 of (R)-[11C]verapamil (fractional difference)", "setting": "[2]", "result": "1.20 (0.119)"}]}
{"smiles": "C=C(C)[C@H]1CN[C@H](C(=O)O)[C@H]1CC(=O)O", "note": "[kainic acid]", "values": [{"measurement": "P-gp expression, P-gp labelled surface area", "setting": "P-glycoprotein (P-gp)", "result": "trend towards higher P-gp expression"}, {"measurement": "P-gp expression, optical density", "setting": "P-glycoprotein (P-gp)", "result": "no difference"}, {"measurement": "Covariate kainate on Vbr1 of (R)-[11C]verapamil (fractional difference)", "setting": "[3]; kainate vs saline treated rats, 7 days after treatment", "result": "1.32 (0.416)"}, {"measurement": "increase of Vbr1 of (R)-[11C]verapamil in kainate treated compared to saline treated rats", "setting": "[3]; population model, rat group as covariate, 7 days after kainate", "result": 32, "unit": "%"}, {"measurement": "duration of seizures", "setting": "Sprague-Dawley rats; after kainic acid i.p.", "result": "1 to 2", "unit": "h"}, {"measurement": "seizure stage reached (Racine's scale)", "setting": "Sprague-Dawley rats; kainic acid i.p. 10 mg/kg then 5 mg/kg every 30-60 minutes, all rats, except one", "result": "stage IV-V seizures"}, {"measurement": "rats that died as a result of treatment", "setting": "Sprague-Dawley rats; kainic acid i.p., up to 30 mg/kg", "result": "Four"}, {"measurement": "time to status epilepticus after the last injection", "setting": "Sprague-Dawley rats; typically 3 injections, i.e. 20 mg/kg i.p.", "result": "≤ 20", "unit": "min"}]}
{"smiles": "O=C[C@H]([18F])[C@@H](O)[C@H](O)[C@H](O)CO", "note": "[^18FDG]", "values": [{"measurement": "18FDG brain uptake, SUV", "setting": "18FDG brain uptake (PET); kainate treated rats, mean ± s.d.", "result": "2.0 ± 0.4"}, {"measurement": "18FDG brain uptake, SUV", "setting": "18FDG brain uptake (PET); saline treated rats, mean ± s.d.", "result": "1.6 ± 0.3"}, {"measurement": "18FDG brain uptake, SUV", "setting": "18FDG brain uptake (PET); with or without tariquidar co-administration (both groups)", "result": "1.8 ± 0.4"}]}
